According to patent publication US5688824A, “Use of leflunomide to prevent or control xenograft rejection” (priority 1996, dated 1997):
Where two headings read alike, the source gives them in different places.

Experiments:
[1] = cited from earlier work
[2] = test system: proteoglycan-induced arthritis; conditions: BALB/c mouse; cited from earlier work
allogeneic kidney graft = conditions: cited from earlier work
cardiac allograft = conditions: cited from earlier work
[3] = test system: BN heterotopic heart grafts; conditions: oral 15 mg/kg/day, cited from earlier work
[4] = test system: intimal thickening of BN orthotopic femoral arterial grafts; conditions: oral 10 mg/kg/day; cited from earlier work
[5] = test system: rejection of concordant hamster to rat renal xenografts; assay: hamster to rat concordant renal xenograft rejection; type: in vivo, Golden Syrian hamster donor, LEW rat recipient
Description: Like Example 2, this experiment was also designed to determine a dose response curve using leflunomide as monotherapy, CsA as monotherapy, and both used as combination therapy. End points used to assess efficacy were duration of time to rejection, mortality, and histologic differences among the treatment groups.
Golden Syrian hamsters and LEW rats were maintained as in Example 2, and leflunomide and CsA were administered in the same manner as in Example 2. Renal transplantation was performed using cuffs of aorta and vena cava for vascular anastomosis; the donor ureter bearing a button of bladder was connected to the recipient bladder. Both recipient kidneys were removed at the time of transplantation.
Leflunomide monotherapy was dosed at 2.5, 5, 10 and 15 mg/kg. CsA monotherapy at 10 mg/kg was given to one group. Two groups were given combination therapy of leflunomide 5 mg/kg with CsA 5 mg/kg, and leflunomide 5 mg/kg with CsA 10 mg/kg. Serum creatinine was measured at 7 days and 21 days. Rejection was defined as death of the animal from uremia with histology consistent with immune-mediated injury.
At the death of the animal, the kidney graft was removed, fixed in formalin, and stained with hematoxylin and eosin to determine the extent of pathological change. IgG and IgM staining was also done on formalin-fixed tissue, using ABC Technique as for Example 2.

[6] = test system: platelet derived growth factor-receptor (PDGFR) tyrosine kinase; conditions: cited from earlier work
[7] = test system: rejection of concordant hamster to rat cardiac xenografts; assay: hamster to rat concordant cardiac xenograft rejection; type: in vivo, Golden Syrian hamster donor, Lewis (LEW) rat recipient
Description: The fundamental design of this experiment was to determine a dose response curve using leflunomide as monotherapy, CsA as monotherapy, and both used as combination therapy. End points used to assess efficacy were duration of time to rejection, mortality, histologic differences among the treatment groups, and donor specific antibody responses.
Male LEW rats weighing approximately 200 grams and male Golden Syrian hamsters weighing approximately 150 grams (Harlan, Sprague, Dawley, Indianapolis, Ind.) were allowed five to ten days of acclimatization before surgery was performed. Ketamine-xylazine anesthesia was used in all animals and food and water were freely allowed post-operatively.
Heart transplantation was performed according to the technique of Ono et al., Cardiovasc. […] Cardiac xenograft survival was determined by daily palpation, and rejection was considered complete when the impulse was undetectable. CsA, in its intravenous form (Sandimmune, Sandoz Corporation, East Hanover, N.J.) was administered daily by intramuscular injection to the rat hind limbs. Leflunomide (HWA-486, Hoechst AG, Germany) suspended in 1% carboxymethylcellulose was administered by gavage daily. Immunosuppression therapy was started on the day of surgery unless otherwise specified.
The transplanted animals were assigned to one control group and twelve treatment groups, with dosing at 2.5, 5, 10, 15 and 20 mg/kg of leflunomide, and 10 and 20 mg/kg of CsA. In two groups CsA was kept at 10 mg/kg while leflunomide was dosed at 5 or 10 mg/kg. Three additional treatment groups were included in which leflunomide monotherapy was started seven days before transplantation, or two or three days after transplantation.
The graft heart was excised after cessation of heart beat. Part of the heart was snap frozen in liquid nitrogen and stored at -70° C.; the remainder was fixed in formalin and stained with hematoxylin and eosin to determine pathological changes. The frozen tissue was stained for IgM and IgG deposition using ABC Technique according to Hsu et al., J. Histochem. Cytochem., 29:577 (1981).

[8] = to open-ring form A771726; cited from earlier work
human T-cell = conditions: stimulated by allogeneic lymphocytes, anti-CD3 or anti-CD28 with PMA, or IL-2 or IL-2 with PMA; cited from earlier work
[9] = test system: epidermal growth factor (EGF)-dependent cell growth; conditions: cited from earlier work
[10] = test system: heterotopic small intestinal transplantation; conditions: continuous infusion pump, cited from earlier work
EGF receptor kinase = conditions: cited from earlier work
[11] = 2.5 mg/kg or 5 mg/kg leflunomide
[12] = 10 mg/kg and 15 mg/kg leflunomide
[13] = Lef 15 mg/kg, day began 0, group 5, listed as Lef

Compound: Cc1oncc1C(=O)Nc1ccc(C(F)(F)F)cc1 [leflunomide, N-(4-trifluoromethylphenyl)-5-methylisoxazol-4-carboxamide]
- toxicity ([1]; animal studies, extremely high doses): liver and cardiac toxicity
- tolerability ([1]; animals and man): well tolerated in animals and man
- effect on arthritis [2]: suppresses acute inflammation and protects animals from new inflammatory episodes or acute exacerbation of chronically inflamed joints
- toxicity in dogs (allogeneic kidney graft; dog, in vivo): limited, however, by toxicity due to the canine's N-acetylation enzyme deficiency
- survival (allogeneic kidney graft; leflunomide 8 mg/kg daily): 27 ± 1 days
- survival (allogeneic kidney graft; leflunomide 16 mg/kg daily): 21 ± 2 days
- time to rejection after withdrawal of leflunomide (allogeneic kidney graft; withdrawn from two dogs after 100 days, combination-treated group): ≤ 14 days
- graft survival vs controls (cardiac allograft; 0.63 to 10 mg/kg/day for 7 days): significantly prolonged graft survival compared to controls
- animals with indefinite graft survival (>100 days) (cardiac allograft; 21 days, leflunomide 5 mg/kg/day): three of six animals
- graft vascular disease ([3]; day 50): had no graft vascular disease
- antibodies directed against BN grafts in sera [3]: contained no antibodies directed against the BN grafts
- intimal thickening [4]: reduced intimal thickening compared to untreated controls
- effect on survival [5, 11]: did not significantly increase survival time
- histopathology [5, 11]: did not significantly alter histopathology compared to controls
- mean serum creatinine values vs controls [5, 11]: slightly reduced
- effect on survival [5, 12]: statistically significant improvement in survival
- histology [5, 12]: the histology did not show significant rejection
- Mean Creatinine Day 7 ([5]; Lef 2.5 mg/kg, group 2): 3.6
- Mean Survival ± S.D. ([5]; Lef 2.5 mg/kg, group 2): 8.5 ± 2.1
- Mean Creatinine Day 7 ([5]; Lef 5.0 mg/kg, group 3): 2.7
- Mean Survival ± S.D. ([5]; Lef 5.0 mg/kg, group 3): 7.0 ± 2.6
- Mean Creatinine Day 7 ([5]; Lef 10 mg/kg, group 4): 1.6
- Mean Survival ± S.D. ([5]; Lef 10 mg/kg, group 4): 17.0 ± 8.9
- Mean Creatinine Day 7 ([5]; Lef 15 mg/kg, group 5): 1.2
- Mean Survival ± S.D. ([5]; Lef 15 mg/kg, group 5): 13.2 ± 7.1
- Graft Survival for Each Subject ([5]; Lef 15 mg/kg, group 5, listed as Lef): 17,24
- terminal serum creatinine ([5]; appropriate dose of leflunomide, most of the animals): less than 2.5
- inhibition of PDGFR tyrosine kinase activity [6]: inhibits the intrinsic EGF receptor kinase as well as other kinases such as platelet derived growth factor-receptor (PDGFR) tyrosine kinase activity
- graft histology ([7]; 2.5 mg/kg leflunomide, rejected grafts): Interstitial hemorrhage, focal vascular thrombosis and myocardial necrosis with sparse polymorphonuclear cellular infiltration
- graft histology ([7]; 5.0 mg/kg leflunomide, rejected grafts): Interstitial hemorrhage, focal vascular thrombosis and myocardial necrosis with sparse polymorphonuclear cellular infiltration
- graft histology ([7]; 15 mg/kg leflunomide monotherapy, long-term grafts): myocardial fibrosis, moderate mononuclear cell infiltration and arterial thickening, consistent with chronic rejection
- Mean Survival ± SD ([7]; Lef 2.5 mg/kg, day began 0, group 2): 5.0 ± 0.6 days
- Mean Survival ± SD ([7]; Lef 5 mg/kg, day began 0, group 3): 7.7 ± 2.5 days
- Graft Survival for Each Subject ([7]; Lef 5 mg/kg, day began 0, group 3, listed as Lef): 8,14 days
- Mean Survival ± SD ([7]; Lef 10 mg/kg, day began 0, group 4): 52.0 ± 20.2 days
- Mean Survival ± SD ([7]; Lef 10 mg/kg, day began +2, group 12): 58.0 ± 13.7 days
- Graft Survival for Each Subject ([7]; Lef 10 mg/kg, day began +2, group 12, listed as Lef): 76,77 days
- Mean Survival ± SD ([7]; Lef 10 mg/kg, day began +3, group 13): 3.7 ± 0.5 days
- Mean Survival ± SD ([7]; Lef 10 mg/kg, day began -7, group 11): 64.0 ± 13.3 days
- Mean Survival ± SD ([7]; Lef 15 mg/kg, day began 0, group 5): 76.5 ± 21 days
- Graft Survival for Each Subject [7, 13]: 100,105 days
- Mean Survival ± SD [7, 13]: 76.5 ± 21.1 days
- Mean Survival ± SD ([7]; Lef 20 mg/kg, day began 0, group 6): 58.9 ± 28.1 days
- Graft Survival for Each Subject ([7]; Lef 20 mg/kg, day began 0, group 6, listed as Lef): 100 days
- time to rejection of the graft ([7]; initiation of leflunomide delayed until day 3, all animals): ≤ 24 h
- toxicity ([7]; leflunomide 20 mg/kg): lethal toxicity appeared
- optimal dose ([7]; leflunomide monotherapy): 15 mg/kg
- control of xenograft rejection ([7]; leflunomide monotherapy, high doses causing toxicity): unable to totally control xenograft rejection
- minimal effective dose ([7]; leflunomide monotherapy, read-out: dose at which graft survival exceeded that of untreated controls): 10 mg/kg
- effect of start time on length of graft survival ([7]; leflunomide started seven days before or two days after transplantation): no significant effect on length of graft survival
- conversion after administration [8]: rapidly convened to its active open-ring form
- inhibition of human T-cell proliferation (human T-cell): inhibit human T-cell proliferation
- inhibition of EGF-dependent cell growth [9]: capable of inhibiting epidermal growth factor (EGF)-dependent cell growth
- survival of recipients ([10]; 7 days): 29.3 ± 13.8 days
- survival of recipients ([10]; 14 days): 38.8 ± 11.5 days
- inhibition of EGF receptor kinase (EGF receptor kinase): inhibits the intrinsic EGF receptor kinase
